Test results published in patent US4734418A, “Quinazoline compounds and antihypertensives” (priority 1984, dated 1988).
Read-outs that look alike come from different tables or passages of the source.

Experiments:
[1] = tested on: Spontaneously Hypertensive Rats; test: Test 1: antihypertensive effects (systolic tail artery blood pressure) and heart rate in spontaneously hypertensive rats, oral; format: in vivo, rat (male, SHR); details: for change in vivo at 1 mg/kg: Rattus norvegicus; for Change (%) in heart rate: maximum value
Procedure, shortened: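 Male SHRs aged 20 weeks or older (350-430 g), with systolic pressure of 180 mmHg or higher, were used in groups of 3-4. Compounds in 0.5% methylcellulose were given orally, mostly at 1 mg/Kg. Systolic tail-artery blood pressure and heart rate were measured together as percent change.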

Mouse = test: Test 2: acute toxicity, mouse, oral; format: in vivo, male ddy-mice; details: fourteenth day
Experimental: (§1) The acute toxicity of certain compounds of this invention were studied in the following manner.
(§2) Namely, male ddy-mice of 5 weeks of age and male Wister rats of 8 weeks of age were fasted for 18 hours and used in groups each of which was constituted of 4-5 of mice or rats. The compounds were each dissolved or suspended in a 0.5% methylcellulose solution and administered orally (P.O.). On the fourteenth day after the administration, their toxicity were judged.
(§3) Each numeral set indicates the number of dead animals/the number of teste
(§4) animals. Hyphens (--) indicate that no tests were effected.

Rat = test: Test 2: acute toxicity, rat, oral; format: in vivo, male Wister rats; details: fourteenth day
Experimental: as §1, §2, §3, §4

[2] = solubility in DMSO (NMR not measured); format: physicochemical; details: HCl salt
[3] = SHR, oral 1 mg/Kg, 1 hour, read-out: Antihypertensive effects, change (%) in blood pressure, 1 hour later
[4] = SHR, oral 1 mg/Kg, 3 hours, read-out: Antihypertensive effects, change (%) in blood pressure, 3 hours later
[5] = SHR, oral 1 mg/Kg, 6 hours, read-out: Antihypertensive effects, change (%) in blood pressure, 6 hours later
[6] = SHR, oral 1 mg/Kg, 24 hours, read-out: Antihypertensive effects, change (%) in blood pressure, 24 hours later
[7] = po, 1 h, read-out: Antihypertensive effects, change (%) in blood pressure, 1 hour later
[8] = po, 3 h, read-out: Antihypertensive effects, change (%) in blood pressure, 3 hours later
[9] = po, 6 h, read-out: Antihypertensive effects, change (%) in blood pressure, 6 hours later
[10] = po, 24 h, read-out: Antihypertensive effects, change (%) in blood pressure, 24 hours later

solubility in DMSO [2] | Compound | change in vivo at 1 mg/kg [1, 3] [%] | change in vivo at 1 mg/kg [1, 4] [%] | change in vivo at 1 mg/kg [1, 5] [%] | change in vivo at 1 mg/kg [1, 6] [%] | Change (%) in heart rate ([1]; SHR, oral 1 mg/Kg) | Acute Toxicity, number of dead animals/number of tested animals (Mouse; 1 g/Kg P.O.) | Acute Toxicity, number of dead animals/number of tested animals (Mouse; 3 g/Kg P.O.) | Acute Toxicity, number of dead animals/number of tested animals (Rat; 1 g/Kg P.O.) | Acute Toxicity, number of dead animals/number of tested animals (Rat; 3 g/Kg P.O.) | change in vivo at 1 mg/kg [1, 7] [%] | change in vivo at 1 mg/kg [1, 8] [%] | change in vivo at 1 mg/kg [1, 9] [%] | change in vivo at 1 mg/kg [1, 10] [%]
– | CCn1ccc2nc(N3CCN(c4nc(N)c5cc(OC)c(OC)cc5n4)CC3)ncc2c1=O [Example 1, 4-Amino-6,7-dimethoxy-2-(4-(5,6-dihydro-6-ethyl-5-oxopyrido[4,3-d]pyrimidin-2-yl)piperazino)quinazoline] | -10.7 | -17.3 | -23 | -8.2 | +4.1% | 0/5 | 0/5 | 0/5 | 0/5 | – | – | – | –
– | CCNc1nc(N2CCN(c3nc(N)c4cc(OC)c(OC)cc4n3)CC2)ncc1C(=O)OC.Cl [Example 2, 4-Amino-6,7-dimethoxy-2-(4-(4-ethylamino-5-methoxycarbonylpyrimidine-2-yl)piperazino)quinazoline hydrochloride] | -9 | -23.9 | -38.8 | -16.4 | +18.4% | 0/5 | 0/5 | 0/5 | 0/5 | – | – | – | –
– | COc1cc2nc(N3CCN(c4ncc5c(=O)n(C)ccc5n4)CC3)nc(N)c2cc1OC [Example 4] | -4.4 | -22.1 | -26.5 | -16.7 | +5.7% | 0/5 | 0/5 | 0/5 | 0/5 | – | – | – | –
insolubility | COc1cc2nc(N3CCN(c4ncc5c(n4)CNC5=O)CC3)nc(N)c2cc1OC [Example 22] | -1.5 | -10.1 | -17.1 | -4 | +17.7% | – | – | – | – | – | – | – | –
– | COc1cc2nc(N3CCN(c4ncc5c(n4)CN(C)C5=O)CC3)nc(N)c2cc1OC [Example 24] | -7.2 | -24.8 | -28.6 | -8.7 | +12.0% | 0/5 | 0/5 | 0/5 | 0/5 | – | – | – | –
– | COc1cc2nc(N3CCN(c4ncc5c(n4)N(C)C(=O)C5)CC3)nc(N)c2cc1OC [Example 29] | -5.2 | -23 | -35.2 | -13.1 | +10.1% | 0/5 | 0/5 | 0/5 | 0/4 | – | – | – | –
– | COC(=O)c1cnc(N2CCN(c3nc(N)c4cc(OC)c(OC)cc4n3)CC2)nc1NC(C)C [Example 62] | -1.4 | -24 | -31.3 | -21.2 | +7.6% | 0/5 | – | 0/5 | – | – | – | – | –
– | CCCC(=O)N1CCCN(c2nc(N)c3cc(OC)c(OC)cc3n2)CC1 [Example E-643, Bunazosin, reference compound] | -4.8 | -12 | -13.5 | -6.7 | +8.8% | 0/5 | – | 2/4 | – | – | – | – | –
– | COc1cc2nc(N3CCN(C(=O)c4ccco4)CC3)nc(N)c2cc1OC [Prazosin, prazosin, reference compound] | – | – | – | – | +8.0% | 0/5 | 0/5 | 0/5 | 0/3 | -23.6 | -25.1 | -24.6 | -5
– | COc1cc2nc(N3CCN(C(=O)C4CCCO4)CC3)nc(N)c2cc1OC (stereo not drawn) [Terazosin, terazosin, reference compound] | – | – | – | – | +7.2% | 0/5 | 1/5 | – | – | -22.4 | -25.9 | -23.4 | -5.4
